Experiments:
[1] = biological target: T1, Coelenterazine h 2-monooxygenase (Renilla reniformis, UniProt P27652)
T1 sequence (P27652 whole entry): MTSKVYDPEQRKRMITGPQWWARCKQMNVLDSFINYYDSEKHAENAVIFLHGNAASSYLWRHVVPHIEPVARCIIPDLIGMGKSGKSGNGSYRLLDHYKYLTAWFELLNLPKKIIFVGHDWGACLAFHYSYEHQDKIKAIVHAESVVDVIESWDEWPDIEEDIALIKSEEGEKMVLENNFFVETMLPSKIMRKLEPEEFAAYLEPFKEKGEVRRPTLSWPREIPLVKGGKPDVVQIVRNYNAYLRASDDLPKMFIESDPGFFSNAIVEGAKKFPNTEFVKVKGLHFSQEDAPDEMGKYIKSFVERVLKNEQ
Description: GSK_PKIS: Inhibition of Sea Pansy Luciferase (Data from PubChem: AID 652015) [NIH NCATS]

[2] = biological target: Luciferin 4-monooxygenase (Photinus pyralis, UniProt P08659)
Luciferin 4-monooxygenase, sequence (P08659 whole entry): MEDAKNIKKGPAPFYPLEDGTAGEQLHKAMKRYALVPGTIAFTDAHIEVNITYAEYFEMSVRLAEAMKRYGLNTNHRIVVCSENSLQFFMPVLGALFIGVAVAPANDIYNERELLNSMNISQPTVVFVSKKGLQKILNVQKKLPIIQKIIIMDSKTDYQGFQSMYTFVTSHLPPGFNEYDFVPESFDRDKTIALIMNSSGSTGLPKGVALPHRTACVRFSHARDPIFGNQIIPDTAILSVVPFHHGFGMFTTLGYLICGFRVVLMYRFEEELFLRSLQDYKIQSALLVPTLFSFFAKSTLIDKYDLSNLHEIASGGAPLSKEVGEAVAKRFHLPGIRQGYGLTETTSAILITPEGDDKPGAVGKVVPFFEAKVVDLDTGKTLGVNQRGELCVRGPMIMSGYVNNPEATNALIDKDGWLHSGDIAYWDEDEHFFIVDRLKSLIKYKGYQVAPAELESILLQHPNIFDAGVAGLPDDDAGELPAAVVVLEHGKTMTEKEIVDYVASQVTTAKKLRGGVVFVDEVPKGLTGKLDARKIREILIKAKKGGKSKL
Description: GSK_PKIS: Inhibition of Firefly Luciferase (Data from PubChem: AID 652016) [NIH NCATS]

AC50 ([2]; read-out: AC50)	AC50 ([1]; read-out: AC50)	Structure (SMILES)	AC50 [1]	AC50 [2]
20.6 µM	–	CC(C)c1ccc(Nc2nccc(-c3cnn4ncccc34)n2)cc1 [GW805758X]	Phenotype: Inactive; Curve_Description: None	–
14.6 µM	–	CCOc1ccc2c(-c3ccnc(Nc4cc(OC)cc(C(F)(F)F)c4)n3)cnn2n1 [GW807982X]	Phenotype: Activator; Curve_Description: None	–
–	–	COc1cc(Nc2ncc3c(C)nc(-c4cccc(Oc5ccccc5)c4)n3n2)cc(OC)c1OC [GW861893X]	Phenotype: Inactive; Curve_Description: None	Phenotype: Inactive; Curve_Description: None
–	–	COC(=O)c1cncc(/C=C/c2c(C)cc(O)cc2C)c1 [GW406731X]	Phenotype: Inactive; Curve_Description: None	Phenotype: Inactive; Curve_Description: None
–	–	CNC(=O)c1ncccc1Nc1nc(Nc2cc3c(cc2OC)CCCN3C(=O)CN(C)C)nc2[nH]ccc12 [GSK-2220400A]	Phenotype: Activator; Curve_Description: None	Phenotype: Inactive; Curve_Description: None
2.91 µM	–	c1cnn2ncc(-c3ccnc(Nc4ccc5c(c4)OCCO5)n3)c2c1 [GW806290X]	Phenotype: Inactive; Curve_Description: None	–
5.17 µM	20.6 µM	O=C1Nc2ccccc2/C1=C1\CCc2cc(O)ccc21	–	–
–	–	CC(C)COC(=O)c1ccc2c(c1)/C(=C/Nc1ccc(S(N)(=O)=O)cc1)C(=O)N2 [GW416981X]	Phenotype: Inactive; Curve_Description: None	Phenotype: Inactive; Curve_Description: None
–	–	NC(=O)c1cc(-c2ccc(F)cc2)cc(-c2ccncc2)c1N [GSK-620503A]	Phenotype: Inactive; Curve_Description: None	Phenotype: Inactive; Curve_Description: None
–	–	Nc1nc(-c2cccc(Cl)c2)c(-c2ccc3ncccc3n2)s1 [GW780159X]	Phenotype: Inactive; Curve_Description: None	Phenotype: Inactive; Curve_Description: None
32.6 µM	–	CCc1cccc(NC(=O)Nc2ccc(Oc3ccc4nc(NC(=O)OC)[nH]c4c3)cc2)c1 [GW673715X]	Phenotype: Inactive; Curve_Description: None	–
–	–	Cl.Nc1ncnc2occ(-c3ccc(NC(=O)Nc4cc(C(F)(F)F)ccc4F)cc3)c12 [GW770249A]	Phenotype: Inactive; Curve_Description: None	Phenotype: Inactive; Curve_Description: None
–	29.1 µM	CCn1c(-c2nonc2N)nc2c(C#CC(C)(C)O)nc(OC[C@H](N)c3ccccc3)cc21 [GSK-943949A]	–	Phenotype: Inactive; Curve_Description: None
29.1 µM	–	CN(C)CCNC(=O)Nc1ccc(N(C)c2ccnc(Nc3ccc(CS(C)(=O)=O)cc3)n2)cc1.Cl [GW830900A]	Phenotype: Inactive; Curve_Description: None	–
–	–	COc1ccc2c(-c3ccnc(Nc4cccc(OC(F)(F)F)c4)n3)cnn2n1 [GW810372X]	Phenotype: Activator; Curve_Description: None	Phenotype: Inactive; Curve_Description: None
–	–	NC(=O)c1ccc2c(-c3ccnc(NCCCO)n3)c(-c3ccc(F)cc3)nn2c1 [GW581744X]	Phenotype: Inactive; Curve_Description: None	Phenotype: Inactive; Curve_Description: None
41.1 µM	–	CC1(C)CC(n2cnc(-c3ccc(F)cc3)c2-c2ccnc(N)n2)CC(C)(C)N1	Phenotype: Inactive; Curve_Description: None	–
20.6 µM	–	CS(=O)(=O)CCNCc1ccc(-c2ccc3ncnc(Nc4ccc(OCc5ccccc5)c(Cl)c4)c3c2)o1.Cl [GW574783B]	Phenotype: Inactive; Curve_Description: None	–
18.3 µM	–	O=C1Nc2ccccc2/C1=C/Nc1ccc(-n2cncn2)cc1 [GW301789X]	Phenotype: Inactive; Curve_Description: None	–
–	–	Cl.c1ccc(-c2nc3n(c2-c2ccc4c(c2)OCO4)CCC3)nc1	Phenotype: Inactive; Curve_Description: None	Phenotype: Inactive; Curve_Description: None
41.1 µM	–	Cc1ccc(O)cc1Nc1ccnc2ccc(S(C)(=O)=O)cc12 [GW559768X]	Phenotype: Inactive; Curve_Description: None	–
–	–	Fc1ccc(-c2ncn(CCCN3CCOCC3)c2-c2ccncc2)cc1 [SB-210313]	Phenotype: Activator; Curve_Description: None	Phenotype: Inactive; Curve_Description: None
0.73 µM	–	Cl.NC(=O)c1cccc(Nc2nccc(Nc3cccc(F)c3)n2)c1 [GW759710A]	Phenotype: Inactive; Curve_Description: None	–
5.8 µM	–	COc1ccc(Nc2ncc(-c3ccccc3)o2)cc1OC.Cl [GW575533A]	Phenotype: Inactive; Curve_Description: None	–

Structure (SMILES)	AC50 ([2]; read-out: AC50)	AC50 ([1]; read-out: AC50)	AC50 [1]	AC50 [2]
NS(=O)(=O)c1ccc(N/N=C2\C(=O)Nc3ccc(C(=O)NCCCn4ccnc4)cc32)cc1 [GW290597X]	–	18.3 µM	–	Phenotype: Inactive; Curve_Description: None

— ChEMBL document CHEMBL2303647, “Data associated with the publication PLoS ONE, 8(3), e57888, (2013) PMID: 23505445. Compounds: GSK PKIS; Assays: NIH NCATS”
